# Measured values: PubChem BioAssay AID1963864 (Molecular Pharmacology Branch, DTP, NCI, 2024)
# System: KRAS PDC multicell spheroid viability
# Assay: Anticancer human tumor 521955-158-R6-J3-PDC patient-derived pancreatic carcinoma cell line growth inhibition [KRAS2]
# Conditions: for IC50: curve of first compound; for viability, T/C: stronger effect = lower value
# Excerpt: Multicellular complex tumor spheroid response to RAS pathway inhibitors in combination with a targeted agents in patient-derived cell lines with oncogenic KRAS variants from multiple cancer types
# A high-throughput screen of multi-cell type tumor spheroids was designed to identify active combinations of targeted small molecules and KRAS pathway inhibitors. Complex spheroids include a stromal component modeled by human endothelial cells (HUVEC) and fibroblasts modeled by human mesenchymal stem cells (MSCs). The concentration ranges selected for each drug and investigational agent were based upon clinically achievable concentrations if the clinical Cmax of the agent was known.
# Compounds. The drugs and investigational agents: BI-3406 (NSC825286), BAY-293 (NSC824723), batoprotafib (TNO155; NSC825523), sotorasib (AMG 510; NSC818433), MRTX1257 (NSC819558), elimusertib (BAY 1895344; NSC800525), molibresib (GSK525762; NSC774829), temuterkib (LY3214996; NSC803410), venetoclax (NSC766270), alisertib (NSC759677), olaparib (NSC753686), talazoparib (NSC767125), erdafitinib (NSC781556), ipatasertib (NSC767898), cabozantinib (NSC761068), nintedanib (NSC756659), abemaciclib (NSC768073), docetaxel (NSC628503), trametinib (NSC758246), and sapanisertib (NSC764658) were obtained from the National Cancer Institute (NCI) Developmental Therapeutics Program Chemical Repository. The FDA-approved anticancer drug set is available from the Developmental Therapeutics Program. […] The stock solutions were prepared in dimethyl sulfoxide (DMSO, Sigma-Aldrich, St. Louis, MO, cat. D2650) at 800-fold the tested concentration and stored at -70 degrees C prior to their use. All drugs and investigational agents were tested over a range starting from a high concentration at or near the clinical Cmax and decreasing in half-log increments. If the clinical Cmax for an agent had not been determined, the highest concentration tested was 10 microM.
# Cell Culture. All cells were maintained in an incubator at 37 degrees C and 5% CO2 with 95% humidity. The PDC lines were cultured according to standard operating procedures established by the NCI PDMR (https://pdmr.cancer.gov/sops/default.htm). Briefly, all PDCs were thawed and cultured in Matrigel-coated flasks prepared with a working solution of 1X Ham's F-12 nutrient mix, without supplementation (Invitrogen, Waltham, MA, cat. 11765054), 100 U/mL penicillin-streptomycin (Invitrogen, cat. 15140122), and 2.5% Matrigel (Corning Inc., Corning, NY, cat. 354248) for the first three passages. All PDCs were cultured in complete DMEM/F-12 media containing advanced DMEM/F-12 (Invitrogen, cat. 12634028), 4.9% defined fetal bovine serum, heat inactivated (HyClone Laboratories Inc., Logan, UT, cat. SH30070.03HI), 389 ng/mL hydrocortisone (Sigma-Aldrich, cat. H4001), 9.7 ng/mL human EGF recombinant protein (Invitrogen, cat. PHG0313), 23.4 microg/mL adenine (Sigma-Aldrich, cat. A2786), 97.3 U/mL penicillin-streptomycin (Invitrogen, cat. 15140122), 1.9 mM L-glutamine (Invitrogen, cat. 25030081), and 9.7 microM Y-27632 dihydrochloride (Tocris Bioscience, Bristol, United Kingdom, cat. 1254). The PDCs were cultured in complete DMEM/F12 media without 9.7 microM Y-27632 dihydrochloride for at least two passages prior to the screen. The established cell line HOP-62 was cultured in RPMI 1640 medium, HEPES (Invitrogen, cat. 22400105) with 10% defined fetal bovine serum (HyClone Laboratories Inc., cat. SH30070.03) and 2 mM L-glutamine (Invitrogen, cat. 25030081). The pooled donor HUVEC were cultured in endothelial cell growth medium 2 (PromoCell, Heidelberg, Germany, cat. C-22011) and the hMSC were cultured in mesenchymal stem cell growth medium 2 (PromoCell, cat. C-28009). For all experiments, HUVEC and hMSC were used at passages </=5, while the malignant cell lines were used at passages </=15. […]
# 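Further: drug exposure lasted seven days.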
# 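Wherever viability, T/C is given: 100% = DMSO vehicle wells and lower means fewer viable cells.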
compound,measurement,setting,value
CCN1CCN(Cc2ccc(Nc3ncc(F)c(-c4cc(F)c5nc(C)n(C(C)C)c5c4)n3)nc2)CC1 + CC1OCC2(CCN(c3cnc(Sc4ccnc(N)c4Cl)c(N)n3)CC2)C1N,IC50,second compound 0.1 µM,> 1000 nM
same,IC50,second compound 0.316 µM,> 1000 nM
same,IC50,second compound 1 µM,> 1000 nM
same,IC50,second compound 3.16 µM,> 1000 nM
same,IC50,second compound 10 µM,> 1000 nM
same,"viability, T/C","second compound 0.1 µM, first compound 0.00316 µM",81.3%
same,"viability, T/C","second compound 0.1 µM, first compound 0.01 µM",79.9%
same,"viability, T/C","second compound 0.1 µM, first compound 0.0316 µM",73%
same,"viability, T/C","second compound 0.1 µM, first compound 0.1 µM",68.4%
same,"viability, T/C","second compound 0.1 µM, first compound 0.316 µM",76%
same,"viability, T/C","second compound 0.1 µM, first compound 1 µM",88.2%
same,"viability, T/C","second compound 0.316 µM, first compound 0.00316 µM",101%
same,"viability, T/C","second compound 0.316 µM, first compound 0.01 µM",84.1%
same,"viability, T/C","second compound 0.316 µM, first compound 0.0316 µM",82.3%
same,"viability, T/C","second compound 0.316 µM, first compound 0.1 µM",69.2%
same,"viability, T/C","second compound 0.316 µM, first compound 0.316 µM",71.8%
same,"viability, T/C","second compound 0.316 µM, first compound 1 µM",85.3%
same,"viability, T/C","second compound 1 µM, first compound 0.00316 µM",94.5%
same,"viability, T/C","second compound 1 µM, first compound 0.01 µM",91.2%
same,"viability, T/C","second compound 1 µM, first compound 0.0316 µM",97%
same,"viability, T/C","second compound 1 µM, first compound 0.1 µM",82.1%
same,"viability, T/C","second compound 1 µM, first compound 0.316 µM",78.8%
same,"viability, T/C","second compound 1 µM, first compound 1 µM",90.1%
same,"viability, T/C","second compound 3.16 µM, first compound 0.00316 µM",113%
same,"viability, T/C","second compound 3.16 µM, first compound 0.01 µM",109%
same,"viability, T/C","second compound 3.16 µM, first compound 0.0316 µM",84.4%
same,"viability, T/C","second compound 3.16 µM, first compound 0.1 µM",78.7%
same,"viability, T/C","second compound 3.16 µM, first compound 0.316 µM",83.6%
same,"viability, T/C","second compound 3.16 µM, first compound 1 µM",115%
same,"viability, T/C","second compound 10 µM, first compound 0.00316 µM",118%
same,"viability, T/C","second compound 10 µM, first compound 0.01 µM",116%
same,"viability, T/C","second compound 10 µM, first compound 0.0316 µM",111%
same,"viability, T/C","second compound 10 µM, first compound 0.1 µM",114%
same,"viability, T/C","second compound 10 µM, first compound 0.316 µM",95.1%
same,"viability, T/C","second compound 10 µM, first compound 1 µM",86.7%
